Experiment [1] concerns the target Beta-3 adrenergic receptor (Homo sapiens, UniProt P13945). The experiment in a line: 3H-CGP 12177 Whole Cell Binding Assay.
From the text: (§1) The whole cell-binding studies were undertaken in CHO cell lines stably expressing each beta-adrenoceptor subtype.
In experiment [2] the target is Beta-1 adrenergic receptor (Homo sapiens, UniProt P08588). The experiment in a line: 3H-CGP 12177 Whole Cell Binding Assay. The settings on record: pH 7.4; 37 °C.
From the text: as §1

From BindingDB's records for doi:10.1038/sj.bjp.0706048 (University of Nottingham, 2005) come the findings set out here.

Counter-ions that a name gives are not always drawn.

Beta-3 adrenergic receptor, sequence (P13945 whole entry): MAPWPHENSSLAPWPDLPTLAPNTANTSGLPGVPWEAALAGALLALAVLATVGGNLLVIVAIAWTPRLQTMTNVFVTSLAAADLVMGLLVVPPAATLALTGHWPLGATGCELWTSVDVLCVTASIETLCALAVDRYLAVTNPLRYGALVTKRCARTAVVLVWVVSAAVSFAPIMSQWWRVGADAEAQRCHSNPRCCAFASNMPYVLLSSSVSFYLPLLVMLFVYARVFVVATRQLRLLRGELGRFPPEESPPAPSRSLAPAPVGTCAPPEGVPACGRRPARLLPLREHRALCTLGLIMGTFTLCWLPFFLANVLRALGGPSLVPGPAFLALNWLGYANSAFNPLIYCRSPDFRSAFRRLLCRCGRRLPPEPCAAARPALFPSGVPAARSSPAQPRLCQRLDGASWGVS
Beta-1 adrenergic receptor, sequence (P08588 whole entry): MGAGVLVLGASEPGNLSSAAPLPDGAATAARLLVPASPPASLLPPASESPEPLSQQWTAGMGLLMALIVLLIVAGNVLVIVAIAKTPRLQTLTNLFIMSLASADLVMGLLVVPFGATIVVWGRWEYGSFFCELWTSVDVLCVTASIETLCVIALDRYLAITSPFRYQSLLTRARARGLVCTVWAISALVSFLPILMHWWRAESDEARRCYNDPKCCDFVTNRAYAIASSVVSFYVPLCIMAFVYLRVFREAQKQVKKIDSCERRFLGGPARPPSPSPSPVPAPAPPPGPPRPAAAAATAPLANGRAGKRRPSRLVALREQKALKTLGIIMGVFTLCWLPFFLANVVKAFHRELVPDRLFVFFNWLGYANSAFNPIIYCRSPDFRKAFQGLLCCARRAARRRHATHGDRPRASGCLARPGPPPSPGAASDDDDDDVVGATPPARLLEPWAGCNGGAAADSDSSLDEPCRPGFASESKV

One may read the Kd as the constant that tells how readily two partners part at equilibrium. Lower therefore signals higher affinity. For the compound `CC(C)(C)NC[C@H](O)COc1nsnc1N1CCOCC1` (racemic) [tert-butyl(2-hydroxy-3-{[4-(morpholin-4-yl)-1,2,5-thiadiazol-3-yl]oxy}propyl)amine], the Kd in experiment [1] was found to be 158 nM.

Take `CC(C)NCC(O)c1ccc2ccccc2c1` (stereo unspecified) [1-(naphthalen-2-yl)-2-(propan-2-ylamino)ethan-1-ol]: the figures for the Kd in experiment [2] and in experiment [1] were 363 nM and 1290 nM, respectively. For `O=C(O)COc1ccc(OCCNC[C@@H](O)COc2ccccc2)cc1` [2-[4-(2-{[(2R)-2-hydroxy-3-phenoxypropyl]amino}ethoxy)phenoxy]acetic acid], binding in experiment [1] was put at a Kd of 234 nM. Regarding `CC(C)(C)NCC(O)COc1cccc2[nH]c(=O)[nH]c12` (stereo unspecified) [4-[3-(tert-butylamino)-2-hydroxypropoxy]-2,3-dihydro-1H-1,3-benzodiazol-2-one hydrochloride], in experiment [1], the Kd was determined as 102 nM. Take `CC(C)(C)NCC(O)COc1cccc2c1C[C@H](O)[C@H](O)C2` (stereo partly specified) [Corgard]: the Kd in experiment [2] came out at 59 nM; in experiment [1] it was 661 nM. `CC(C)NC[C@H](O)COc1ccc(CCOCC2CC2)cc1` [[(2S)-3-{4-[2-(cyclopropylmethoxy)ethyl]phenoxy}-2-hydroxypropyl](propan-2-yl)amine] had a Kd in experiment [1] of 1070 nM.

In experiment [1], `OCc1cc(C(O)CNCCCCCCOCCCCc2ccccc2)ccc1O` (stereo unspecified) [salmeterol xinafoate] came in with a Kd of 1860 nM. For the compound `Cc1ccc(Cl)c(OCC(O)CNC(C)(C)C)c1` (stereo unspecified) [tert-butyl[3-(2-chloro-5-methylphenoxy)-2-hydroxypropyl]amine], the Kd in experiment [2] turned out to be 3.1 nM; in experiment [1], 91 nM.
